Experimental findings from PMC6445542 (Marmara pharmaceutical journal, 2013) are described below.

For orientation: inhibition means how much of the control response was suppressed. Usually IC50 stands for the concentration needed to halve the response being measured. Low readings indicate greater potency, high ones weaker potency.

For this experiment, the target named is HCV NS5B RNA dependent RNA polymerase (NS5BCΔ21) (Hepatitis C virus genotype 1b, UniProt P26663). Kind of experiment: HCV NS5B RdRp primer dependent elongation. The format is biochemical. The following applies: for inhibition at 100 µM: read-out: % Inhibition (100 μM) of HCV NS5B RdRp activity.

Turning to `CCNC(=S)NNC(=O)CC1(CC)OCCc2c1[nH]c1c(CC)cccc21` (centres unmarked) [Compound 3b, 1-[2-(1,8-Diethyl-1,3,4,9-tetrahydropyrano[3,4-b]indole-1-yl)acetyl]-4-ethyl thiosemicarbazide], the inhibition at 100 µM is 49.9 ± 0.3%.
On the same count and under the same terms, the value for `CCc1cccc2c3c([nH]c12)C(CC)(CC(=O)O)OCC3` (racemic) [Etodolac, (R,S) 2-[1,8-diethyl-1,3,4-tetrahydropyrano (3,4-b)indole-1-yl]acetic acid, reference compound] was approximately 10%.
The same measure, in the same setting: under `CCCNC(=S)NNC(=O)CC1(CC)OCCc2c1[nH]c1c(CC)cccc21` (centres unmarked) [Compound 3c, 1-[2-(1,8-Diethyl-1,3,4,9-tetrahydropyrano[3,4-b]indole-1-yl)acetyl]-4-propyl thiosemicarbazide] stands 34.6 ± 1.1%.
`CCCCNC(=S)NNC(=O)CC1(CC)OCCc2c1[nH]c1c(CC)cccc21` (centres unmarked) [Compound 3d, 1-[2-(1,8-Diethyl-1,3,4,9-tetrahydropyrano[3,4-b]indole-1-yl)acetyl]-4-butyl thiosemicarbazide]: inhibition was half-maximal at 29.2 ± 1.4 µM (IC50) and the inhibition at 100 µM worked out at 68.7 ± 0.9%.
Turning to `CCc1cccc2c3c([nH]c12)C(CC)(CC(=O)NNC(=S)NC1CCCCC1)OCC3` (centres unmarked) [Compound 3h, 1-[2-(1,8-Diethyl-1,3,4,9-tetrahydropyrano[3,4-b]indole-1-yl)acetyl]-4-cyclohexyl thiosemicarbazide], the inhibition at 100 µM turned out to be 47.4 ± 0.9%.
Same read-out and setting: under `CCc1cccc2c3c([nH]c12)C(CC)(CC(=O)NNC(=S)Nc1ccccc1)OCC3` (centres unmarked) [Compound 3g, 1-[2-(1,8-Diethyl-1,3,4,9-tetrahydropyrano[3,4-b]indole-1-yl)acetyl]-4-phenyl thiosemicarbazide] stands 38.9 ± 0.9%; under `CCc1cccc2c3c([nH]c12)C(CC)(CC(=O)NNC(=S)NCc1ccccc1)OCC3` (centres unmarked) [Compound 3f, 1-[2-(1,8-Diethyl-1,3,4,9-tetrahydropyrano[3,4-b]indole-1-yl)acetyl]-4-benzyl thiosemicarbazide], 23.4 ± 1.8%.
